Among the data in patent US7897616B2, “Imidazopyridin-2-one derivatives as inhibitors of lipases and phospholipases” (Sanofi-Aventis, priority 2006, dated 2011) are IC50 values, retold here.

Broadly, the IC50 is the midpoint of a concentration-inhibition curve.

Structures are written as SMILES.

For this test, the target named is T1, endothelial lipase (EL) (Homo sapiens, UniProt Q9Y5X9).
T1 construct: made in house; host or cells: recombinant CHO or HEK293 cell lines; concentrated conditioned medium used as enzyme solution
T1 sequence (Q9Y5X9 21-500): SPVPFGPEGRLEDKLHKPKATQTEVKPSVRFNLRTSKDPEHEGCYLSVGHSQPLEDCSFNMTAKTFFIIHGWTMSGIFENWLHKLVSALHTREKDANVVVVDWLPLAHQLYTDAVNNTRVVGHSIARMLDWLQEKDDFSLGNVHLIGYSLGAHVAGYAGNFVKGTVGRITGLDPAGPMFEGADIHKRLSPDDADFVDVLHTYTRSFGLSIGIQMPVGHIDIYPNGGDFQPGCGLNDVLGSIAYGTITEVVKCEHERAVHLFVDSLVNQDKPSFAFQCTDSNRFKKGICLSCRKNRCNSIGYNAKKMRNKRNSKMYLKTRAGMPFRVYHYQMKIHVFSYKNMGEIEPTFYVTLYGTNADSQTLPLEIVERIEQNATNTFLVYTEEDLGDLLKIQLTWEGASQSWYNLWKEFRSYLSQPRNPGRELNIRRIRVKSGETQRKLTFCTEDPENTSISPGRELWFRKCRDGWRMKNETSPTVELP
Description: EL inhibition assay (EL activity assay with fluorescent Bodipy phospholipid substrate). The following applies: EL from conditioned medium of recombinant cell lines (CHO, HEK293); 37° C., 90 minutes; Bodipy-labeled phosphocholine substrate. It counts as biochemical. On the procedure: The activity of the compounds of the invention of the formula I was tested in the following enzyme assay system: […]
EL is released as secretory protein in high concentration into cell culture medium (conditioned medium) by recombinant cell lines (CHO, HEK293). This is employed as an enzyme solution after concentration.
The phospholipase-specific substrate 1,2-bis(4,4-difluoro-5,7-dimethyl-4-bora-3a,4a-diaza-s-indacene-3-undecanoyl)-sn-glycero-3-phosphocholine (manufacturer Molecular Probes) is used to characterize the enzymatic activity of endothelial lipase and the effect of inhibitors. Hydrolysis of the A1 ester linkage of this phospholipid by the enzyme liberates a fatty acid labeled with the fluorescent dye Bodipy which can be detected after separation by thin-layer chromatography on an HPTLC plate (silica gel 60, Merck) or directly in the reaction vessel by measuring the fluorescence. The substrate solution is prepared by dissolving 100 μg of 1,2-bis(4,4-difluoro-5,7-dimethyl-4-bora-3a,4a-diaza-s-indacene-3-undecanoyl)-sn-glycero-3-phospho-choline (manufacturer Molecular Probes) in 100 μl of DMSO and taking up in 2.4 mg of tripalmitin (Sigma) in 393 μl of chloroform which comprises 20 mg/ml of DOP-choline (1,2-dioleoyl-sn-glycero-3-phosphocholine). 39.3 μl of this lipid mixture are transferred into a fresh reaction vessel, and the solvent is evaporated off. The lipid mixture is dissolved in 4 ml of 200 mM TRIS-HCl, 150 mM sodium chloride, pH=7.4, by sonicating twice. The subsequent enzymic reaction takes place at 37° C. for 90 minutes. For this purpose, 20 μl of the substrate solution are incubated with 2 μl of inhibitor of appropriate concentration (dissolved in 10% DMSO, using 10% strength DMSO solution for control) and 2 μl of enzyme solution (conditioned medium). Subsequently, 4 μl of the assay mixture are loaded onto an HPTLC plate (silica gel 60, Merck), and the liberated fluorescent dye is separated for detection with a mobile phase (diethyl ether:petroleum spirit:acetic acid [78:22:1]). After evaporation of the mobile phase, the plate is read in a fluorescence scanner. An increased liberation of the fluorescent dye in the uninhibited reaction is observed as a measure of the enzyme activity.
The enzymatic activity is reduced as a function of the inhibitor concentration used, and the inhibitor concentration at which a half-maximum enzymatic activity is observed is called IC50.
In the case of `CCCCCCNC(=O)n1c(=O)n(C)c2cccnc21` [Example 1, N-Hexyl-1-methyl-2-oxo-1,2-dihydroimidazo[4,5-b]pyridine-3-carboxamide], the IC50 was determined as 0.06 µM.

As for `Cn1c(=O)n(C(=O)N[C@@H]2CCc3ccccc32)c2ncccc21` [Example 9, 1-Methyl-2-oxo-1,2-dihydro-imidazo[4,5-b]pyridine-3-carboxylic acid-(R)-indan-1-ylamide], the IC50 is 0.232 µM.

As for `Cc1ccccc1CNC(=O)n1c(=O)n(C)c2cccnc21` [Example 2, N-(2-Methylbenzyl)-1-methyl-2-oxo-1,2-dihydroimidazo[4,5-b]pyridine-3-carboxamide], the IC50 came out at 0.24 µM.

Turning to `CCCCCCNC(=O)n1c(=O)n(C(=O)NCCCCCC)c2cnccc21` [Example 8, N,N′-Bishexyl-2-oxoimidazo[4,5-c]pyridine-1,3-dicarboxamide], the IC50 is 0.226 µM.

Regarding `CCCCCCNC(=O)n1c(=O)n(C(=O)OC(C)(C)C)c2c(C)ccnc21` [Example 7, tert-Butyl 3-hexylcarbamoyl-7-methyl-2-oxo-2,3-dihydroimidazo[4,5-b]pyridine-1-carboxylate], the IC50 is 0.146 µM.
